Experimental data as given in patent publication US9596857B2, “Insecticidal and miticidal mixtures of bifenthrin and cyano-pyrethroids” (FMC Corporation, priority 2005, dated 2017).
Values joined by “and” are separate entries in the source; they are usually repeats but may differ in a detail not shown here. Equal entries are not always repeated.

How the values were obtained:
Type in all cases: in vivo
[1] = test system: corn earworm (Helicoverpa zea [Boddie]); test: Cotton leaf-disc dip test against corn earworm; conditions: 96 h, technical
Method: (§1) Candidate insecticide compositions were evaluated for activity in foliar evaluations against tobacco budworm (Heliothis virescens [Fabricius]), Colorado potato beetle (Leptinotarsa decemlineata [Say]), corn earworm (Helicoverpa zea [Boddie]), cotton aphid (Aphis gossypii [Glover]) and twospotted spider mite (Tetranychus urticae [Koch]). Each test included controls in which the formulation or test solution minus the active ingredients were applied.
In tests against corn earworm, one inch diameter leaf discs cut from cotton plant leaves (Gossypium hirsutum) were dipped into the test solutions of the test formulations to provide application rates as high as 1000 ppm of the active ingredients. The test formulations were dissolved in distilled water containing 10% acetone and 0.25% of a non-ionic detergent [an octylphenolpoly(ethyleneglycolether)x, available from Roche Applied Science as Triton X-100] to the proper concentrations. Cotton wicks, 0.5 inch diameter by 2 inches long, were soaked with distilled water and placed into the wells of a 32 well rearing tray (available as Rearing Tray Bio-Fit 32, from C-D International, Pittman, N.J.), one wick per well. Treated leaf discs were placed on top of the cotton wicks, one leaf disc per wick, and the rearing tray was transferred to a hood where they were kept until the leaf discs had dried. Each disc was infested with 1 late second to early third instar corn earworm, replicated sixteen times per rate of application, and a lid was placed on the rearing tray. The rearing trays were held in a growth chamber for 96 hours at 25° C., 50% relative humidity and a photoperiod of 12 hours light/12 hours dark. For tests in which the active ingredients were not formulated, i.e. the technical active ingredient was used; a stock solution of the test compound was made. For example, a 100 ppm stock solution may be made by dissolving 4 milligrams of the test compound in 4 mL of acetone and adding the solution to 36 mL of an aqueous Triton X-100 solution (one drop of Triton X-100 dissolved in 100 mL of distilled water). Further dilutions can be made by adding distilled water containing 10% acetone and 0.25% of Triton X-100.
At the end of the 96 hour exposure period, the rearing tray was opened, and the numbers of dead and live insects were counted. […] Using the insect counts, the activity of the test chemical was expressed in percent control. Percent control is derived from the total number of dead insects (TD) compared to the total number of insects (TI) in the test: […]

[2] = test system: cotton aphid (Aphis gossypii [Glover]); test: Foliar leaf-dip test against cotton aphid on tomato plants; conditions: 72 h, technical
Method: as §1
In tests against cotton aphid, the leaves of 6 to 8 inch tall tomato plants (Lycopersicon lycoper) were infested with about 50 cotton aphids by placing leaf cuttings from a cotton aphid colony host tomato plant. After about 12 hours the newly infested tomato leaves were dipped into the test solutions of the test formulations to provide application rates as high as 1000 ppm of the active ingredients. The test formulations were dissolved in, and diluted as necessary, with distilled water containing 10% acetone and 0.25% of a non-ionic detergent [an octylphenolpoly(ethyleneglycolether)x, available from Roche Applied Science as Triton X-1001 to the proper concentrations. After treatment, a square of parafilm was placed around the stem of each test plant, covering the soil of each pot in order to catch dead aphids that fall from the leaves. The treated plants were transferred to a hood where they were kept until the leaves had dried. Once dry, the potted plants were placed into a tray containing at least one inch of water. The plants were spaced far enough apart to prevent the aphids from moving between plants. The trays were held in a growth chamber for 72 hours at 25° C., 50% relative humidity and a photoperiod of 14 hours light/10 hours dark. For tests in which the active ingredients were not formulated, i.e. the technical active ingredient was used; a stock solution of the test compound was made. For example, a 100 ppm stock solution may be made by dissolving 4 milligrams of the test compound in 4 mL of acetone and adding the solution to 36 mL of an aqueous Triton X-100 solution (one drop of Triton X-100 dissolved in 100 mL of distilled water). Further dilutions can be made by adding distilled water containing 10% acetone and 0.25% of Triton X-100.
At the end of the 72 hour exposure period the numbers of dead and live insects were counted. Insects were classified as “dead” if they were off-color or brown and desiccated. Using the insect counts, the activity of the test chemical was expressed in percent control. Percent control is derived from the total number of dead insects (TD) compared to the total number of insects (TI) in the test: […]

[3] = test system: Colorado potato beetle (Leptinotarsa decemlineata [Say]); test: Foliar leaf-dip test against adult Colorado potato beetle on tomato plants; conditions: 72 h, technical
Method: as §1
In tests against adult Colorado potato beetle, the leaves of 6-8 inch tall tomato plants (Lycopersicon lycoper) were dipped into the test solutions of the test formulations to provide application rates as high as 1000 ppm of the active ingredients. The test formulations were dissolved in distilled water containing 10% acetone and 0.25% of a non-ionic detergent [an octylphenolpoly(ethyleneglycolether)x, available from Roche Applied Science as Triton X-100] to the proper concentrations. The treated plants were transferred to a hood where they were kept until the leaves had dried. For tests in which the active ingredients were not formulated, i.e. the technical active ingredient was used; a stock solution of the test compound was made. For example, a 100 ppm stock solution may be made by dissolving 4 milligrams of the test compound in 4 mL of acetone and adding the solution to 36 mL of an aqueous Triton X-100 solution (one drop of Triton X-100 dissolved in 100 mL of distilled water). Further dilutions can be made by adding distilled water containing 10% acetone and 0.25% of Triton X-100.
The treated tomato plants were removed from their pots by cutting the stems just above the soil line. Each excised plant was placed into an individual 8-ounce paper cup. Ten adult Colorado potato beetles were placed into each paper cup, taking care not to cause injury. An opaque plastic lid was placed on each cup, for a 72 hour exposure period and held at 25° C., 50% relative humidity with a photo-period of 12 hours light and 12 hours dark. At the end of the 72 hour exposure period, the cups were opened, and the numbers of dead and live insects were counted. Using the insect counts, the activity of the test chemical was expressed in percent control. Percent control is derived from the total number of dead insects (TD) compared to the total number of insects (TI) in the test: […]

[4] = test system: twospotted spider mite (Tetranychus urticae [Koch]); test: Foliar leaf-dip test against twospotted spider mite on pinto bean plants; conditions: 96 h, technical
Method: as §1
In tests against twospotted spider mites, the leaves of potted 3 to 4 inch tall pinto bean plants (Phaseolus vulgaris) were infested with about 50 to 75 adult twospotted spider mites by placing leaf cuttings from a twospotted spider mite colony host pinto bean plant on the upper surface of the test plant leaves. After about 1 hour the newly infested pinto bean leaves were dipped into the test solutions of the test formulations to provide application rates as high as 1000 ppm of the active ingredients. The test formulations were dissolved in, and diluted as necessary, with distilled water containing 10% acetone and 0.25% of a non-ionic detergent [an octylphenolpoly(ethyleneglycolether)x, available from Roche Applied Science as Triton X-100] to the proper concentrations. The treated plants were transferred to a hood where they were kept until the leaves had dried. Once dry, the potted plants were placed into a tray containing at least one inch of water. The plants were spaced far enough apart to prevent the mites from moving between plants. The trays were held in a growth chamber for 96 hours at 25° C., 50% relative humidity and a photoperiod of 14 hours light/10 hours dark. For tests in which the active ingredients were not formulated, i.e. the technical active ingredient was used; a stock solution of the test compound was made. For example, a 100 ppm stock solution may be made by dissolving 4 milligrams of the test compound in 4 mL of acetone and adding the solution to 36 mL of an aqueous Triton X-100 solution (one drop of Triton X-100 dissolved in 100 mL of distilled water). Further dilutions can be made by adding distilled water containing 10% acetone and 0.25% of Triton X-100.
At the end of the 96 hour exposure period the numbers of dead and live insects were counted. […] Using the insect counts, the activity of the test chemical was expressed in percent control. Percent control is derived from the total number of dead insects (TD) compared to the total number of insects (TI) in the test: […]

[5] = bifenthrin 1.0 ppm alone (cyano-pyrethroid 0 ppm)
[6] = cyano-pyrethroid 0.3 ppm alone (bifenthrin 0.0 ppm)
[7] = cyano-pyrethroid 1.0 ppm alone (bifenthrin 0.0 ppm)
[8] = cyano-pyrethroid 3.0 ppm alone (bifenthrin 0.0 ppm)
[9] = cyano-pyrethroid 10.0 ppm alone (bifenthrin 0.0 ppm)
[10] = cyano-pyrethroid 30.0 ppm alone (bifenthrin 0 ppm)
[11] = cyano-pyrethroid 100.0 ppm alone (bifenthrin 0 ppm)
[12] = cyano-pyrethroid 200.0 ppm alone (bifenthrin 0 ppm)
[13] = cyano-pyrethroid 0.3 ppm alone (bifenthrin 0 ppm)
[14] = cyano-pyrethroid 1.0 ppm alone (bifenthrin 0 ppm)
[15] = cyano-pyrethroid 3.0 ppm alone (bifenthrin 0 ppm)
[16] = cyano-pyrethroid 10.0 ppm alone (bifenthrin 0 ppm)

Structure (SMILES) | % Mortality Corn Earworm [1, 6] | % Mortality Corn Earworm [1, 7] | % Mortality Corn Earworm [1, 8] | % Mortality Corn Earworm [1, 9] | % Mortality Cotton Aphid [2, 10] | % Mortality Cotton Aphid [2, 11] | % Mortality Adult Colorado Potato Beetle [3, 13] | % Mortality Adult Colorado Potato Beetle [3, 14] | % Mortality Adult Colorado Potato Beetle [3, 15] | % Mortality Adult Colorado Potato Beetle [3, 16] | % Mortality Twospotted Spider Mite [4, 16] | % Mortality Twospotted Spider Mite [4, 10] | % Mortality Twospotted Spider Mite [4, 11] | other results
Cc1c(COC(=O)[C@@H]2[C@H](/C=C(\Cl)C(F)(F)F)C2(C)C)cccc1-c1ccccc1 (racemic) [bifenthrin, 2-methylbiphenyl-3-ylmethyl (Z)-(1RS)-cis-3-(2-chloro-3,3,3-trifluoroprop-1-enyl)-2,2-dimethyl cyclopropanecarboxylate] |  |  |  |  |  |  |  |  |  |  |  |  |  | mortality at 0.1 ppm ([1]; Helicoverpa zea, bifenthrin 0.1 ppm alone (cyano-pyrethroid 0 ppm)): 6%; mortality at 0.3 ppm ([1]; Helicoverpa zea, bifenthrin 0.3 ppm alone (cyano-pyrethroid 0 ppm)): 13%; % Mortality Corn Earworm ([1]; bifenthrin 0.3 ppm alone (cyano-pyrethroid 0 ppm)): 25%; % Mortality Corn Earworm [1, 5]: 100% and 75% and 63%; mortality at 200 ppm ([2]; Aphis gossypii, foliar, bifenthrin 200.0 ppm alone (cyano-pyrethroid 0 ppm)): 100%; mortality at 0.3 ppm ([3]; Leptinotarsa decemlineata, foliar, bifenthrin 0.3 ppm alone (cyano-pyrethroid 0 ppm)): 0%; % Mortality Adult Colorado Potato Beetle [3, 5]: 10%; mortality at 60 ppm ([4]; Tetranychus urticae, foliar, bifenthrin 60.0 ppm alone (cyano-pyrethroid 0 ppm)): 68%; % Mortality Twospotted Spider Mite ([4]; bifenthrin 30.0 ppm alone (cyano-pyrethroid 0 ppm)): 66% and 100% and 69%; % Mortality Twospotted Spider Mite ([4]; bifenthrin 100.0 ppm alone (cyano-pyrethroid 0 ppm)): 75% and 90% and 100%
CC1(C)[C@H](C(=O)O[C@H](C#N)c2cccc(Oc3ccccc3)c2)[C@@H]1C=C(Br)Br [delta-methrin, (S)-α-cyano-3-phenoxybenzyl (1R)-cis-3-(2,2-dibromovinyl)-2,2-dimethylcyclopropanecarboxylate] | 6% | 50% | 94% | 100% | 7% | 8% | 0% | 30% | 90% | 100% | 3% | 83% | 26% | % Mortality Cotton Aphid [2, 12]: 19%; % Mortality Twospotted Spider Mite [4, 12]: 16%
CC1(C)[C@H](C(=O)O[C@H](C#N)c2cccc(Oc3ccccc3)c2)[C@@H]1/C=C(\Cl)C(F)(F)F (racemic) [lambda-cyhalothrin, (S)-α-cyano-3-phenoxybenzyl-(Z)-(1R)-cis-3-(2-chloro-3,3,3-trifluoropropenyl)-2,2-dimethylcyclopropanecarboxylate and (R)-α-cyano-3-phenoxybenzyl-(Z)-(1S)-cis-3-(2-chloro-3,3,3-trifluoropropenyl)-2,2-dimethylcyclopropanecarboxylate] | 6% | 31% | 56% | 100% | 11% | 10% | 30% | 100% | 100% | 100% | 16% | 19% | 39% | % Mortality Cotton Aphid [2, 16]: 11%; % Mortality Twospotted Spider Mite ([4]; cyano-pyrethroid 60.0 ppm alone (bifenthrin 0 ppm)): 55%
